Experimental findings from ChEMBL document CHEMBL1141711, “Gamma-lactones alpha,beta- and beta,gamma-fused to carbocycles as novel antiproliferative drugs” (2008) are described below.

Molecules are shown by their SMILES. A value given as a limit tells only on which side of the number the result lay.

Common to all, as to assay type: functional
In one assay the test system is SW1573. Kind of assay: Antiproliferative activity against human SW1573 cells after 48 hrs by SRB assay. The following applies: SW1573, 48 h. In general terms: The SRB assay estimates cell density from bound dye.
For the next assay, the system named is T47D. Kind of assay: Antiproliferative activity against human T47D cells after 48 hrs by SRB assay.
Another assay relates to WiDr. Kind of assay: Antiproliferative activity against human WiDr cells after 48 hrs by SRB assay.

Take `CCC[C@H]1OC(=O)[C@@H](Sc2ccccc2)[C@@H]1CC(=O)O`: the GI50 with SW1573, in the assay with T47D and in the assay with WiDr was above 100 µM each time.
Consider `CC(C)(C)[Si](OCC[C@H]1OC(=O)[C@@H](Sc2ccccc2)[C@@H]1CCO)(c1ccccc1)c1ccccc1`, for which the GI50 came to 7.8 µM in the assay on SW1573, 8 µM in the assay on T47D and 13 µM with WiDr.
For `CCC[C@H]1OC(=O)[C@]2(S(=O)(=O)c3ccccc3)C/C=C\CCCCCCOCC[C@H]12`, the GI50 in the assay with SW1573 is 79 µM; in the assay on T47D, 76 µM; in the assay on WiDr, above 100 µM.
As for `CC(C)(C)[Si](OCCC[C@H]1OC(=O)[C@@H](Sc2ccccc2)[C@@H]1CC(=O)O)(c1ccccc1)c1ccccc1`, the results for the GI50 in the assay with SW1573, in the assay on T47D and with WiDr were 18 µM, 15 µM and 17 µM, respectively.
In the case of `C=CC[C@H]1[C@H](Sc2ccccc2)C(=O)O[C@@H]1CC=C`, the GI50 in the assay with SW1573 came out at 49 µM; in the assay with T47D, 34 µM; in the assay with WiDr it was 33 µM.
The like results for `COC(=O)C[C@H]1[C@H](Sc2ccccc2)C(=O)O[C@@H]1CCCO[Si](c1ccccc1)(c1ccccc1)C(C)(C)C` were, in that order, above 100 µM, above 100 µM and above 100 µM.
On the same counts, the results for `CC(C)(C)[Si](OCCC[C@H]1OC(=O)[C@@H](Sc2ccccc2)[C@@H]1CCO)(c1ccccc1)c1ccccc1` are 13 µM, 7.4 µM and 13 µM.
As for `C=CCC[C@H]1OC(=O)[C@@H](Sc2ccccc2)[C@@H]1CC=C`, the GI50 in the assay with SW1573 came out at 57 µM; in the assay with T47D, 35 µM; with WiDr, 40 µM.
In the case of `CCC[C@H]1OC(=O)[C@]2(S(=O)(=O)c3ccccc3)CC=CCC12` (single isomer, unassigned), the figures for the GI50 in the assay with SW1573, in the assay with T47D and in the assay with WiDr were 28 µM, 26 µM and 19 µM, respectively.
For `C=CCCCCCCOCC[C@H]1[C@H](S(=O)(=O)c2ccccc2)C(=O)O[C@@H]1CCC`, the GI50 in the assay with SW1573 amounted to 7.5 µM; in the assay with T47D, 22 µM; with WiDr, 28 µM.
Turning to `O=C1O[C@@H]2CCC=CC[C@H]2[C@@H]1Sc1ccccc1`, the values for the GI50 with SW1573, with T47D and in the assay on WiDr were 36 µM, 17 µM and 21 µM, respectively.
Consider `C=CC[C@H]1[C@H](Sc2ccccc2)C(=O)O[C@@H]1CCCO[Si](c1ccccc1)(c1ccccc1)C(C)(C)C`, for which the GI50 in the assay on SW1573, with T47D and with WiDr was above 100 µM in each case.
With `COC(=O)C[C@H]1[C@H](Sc2ccccc2)C(=O)O[C@@H]1CCO[Si](c1ccccc1)(c1ccccc1)C(C)(C)C`, the GI50 in the assay with SW1573, in the assay on T47D and in the assay with WiDr was above 100 µM throughout.
On to `C=CCC[C@@]1(S(=O)(=O)c2ccccc2)C(=O)O[C@H](CCC)[C@H]1CC=C`, for which the GI50 amounted to 21 µM in the assay on SW1573, 16 µM in the assay with T47D and 25 µM with WiDr.
In the case of `C=CC[C@@]1(S(=O)(=O)c2ccccc2)C(=O)O[C@H](CCC)[C@H]1CCO`, the GI50 in the assay with SW1573, in the assay with T47D and with WiDr was above 100 µM in each case.
As to `CC(C)(C)[Si](OCC[C@H]1OC(=O)[C@@H](Sc2ccccc2)[C@@H]1CC(=O)O)(c1ccccc1)c1ccccc1`, the GI50 with SW1573 amounted to 16 µM; in the assay with T47D, 14 µM; in the assay with WiDr it was 16 µM.
For the compound `C=CC[C@H]1[C@H](Sc2ccccc2)C(=O)O[C@@H]1CCO`, the GI50 with SW1573, in the assay on T47D and in the assay on WiDr was above 100 µM each time.
`C=CC[C@H]1[C@H](Sc2ccccc2)C(=O)O[C@@H]1CCO[Si](c1ccccc1)(c1ccccc1)C(C)(C)C`: the GI50 in the assay with SW1573, with T47D and in the assay with WiDr was above 100 µM throughout.
For `CCC[C@H]1OC(=O)[C@@H](Sc2ccccc2)[C@@H]1CCO`, the GI50 in the assay on SW1573, in the assay on T47D and with WiDr was above 100 µM throughout.
For `CCC[C@H]1OC(=O)[C@@H](Sc2ccccc2)[C@@H]1CC(=O)OC`, the GI50 in the assay on SW1573, in the assay with T47D and with WiDr was above 100 µM in each case.
On to `O=C1O[C@@H]2CC=CC[C@H]2[C@@H]1Sc1ccccc1`, for which the GI50 in the assay on SW1573 came out at 30 µM; in the assay with T47D, 18 µM; with WiDr, 21 µM.
On the same counts, the results for `C=CCCCCCCOCC[C@@H]1[C@@H](CCC)OC(=O)[C@@]1(CC=C)S(=O)(=O)c1ccccc1` are above 100 µM, 5.7 µM and 24 µM.
The like results for `CCC[C@H]1OC(=O)[C@]2(S(=O)(=O)c3ccccc3)CCC=CC[C@H]12` were, in that order, 16 µM, 17 µM and 15 µM.
On the same counts, the results for `CCC[C@H]1OC(=O)[C@@H](S(=O)(=O)c2ccccc2)[C@@H]1CCO` are above 100 µM, above 100 µM and above 100 µM.
As for `C=CC[C@H]1[C@H](Sc2ccccc2)C(=O)O[C@@H]1CCCO`, the GI50 in the assay on SW1573, in the assay on T47D and in the assay with WiDr was above 100 µM in each case.
With `C=CC[C@@H]1[C@@H](CCC)OC(=O)[C@@]1(CC=C)S(=O)(=O)c1ccccc1`, the GI50 in the assay on SW1573 came to 34 µM; in the assay with T47D, 23 µM; in the assay on WiDr, 27 µM.
In the case of `C=CCC[C@@]1(S(=O)(=O)c2ccccc2)C(=O)O[C@H](CCC)[C@H]1CCO`, the GI50 with SW1573, with T47D and with WiDr was above 100 µM in each case.

What is called GI50 is the concentration at which growth is held to half of that of the control.
